What all share (type): cell-based
Assay [1] has as its target T1, human prostanoid TP receptor (Homo sapiens, UniProt P21731).
T1 construct: expressed in transfected cells
T1 sequence (P21731 1-343): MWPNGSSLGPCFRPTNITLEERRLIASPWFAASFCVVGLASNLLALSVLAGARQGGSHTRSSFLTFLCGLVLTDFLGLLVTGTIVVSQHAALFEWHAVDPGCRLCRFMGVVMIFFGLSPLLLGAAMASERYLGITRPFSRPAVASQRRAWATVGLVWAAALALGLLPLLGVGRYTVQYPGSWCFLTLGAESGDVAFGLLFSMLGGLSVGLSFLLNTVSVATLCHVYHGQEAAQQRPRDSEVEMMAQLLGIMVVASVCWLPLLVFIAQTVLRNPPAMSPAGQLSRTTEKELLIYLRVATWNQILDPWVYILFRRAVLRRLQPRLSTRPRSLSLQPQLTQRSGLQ
The experiment in a line: FLIPR Ca2+ signaling antagonist assay, TP receptor stable cell line. Particulars: HEK-293 EBNA stable cell line; standard agonist U-46619; NA = inactive (no antagonism or Kb 10,000 nM); PAg, Ag not defined. On the procedure: (§1) The above compounds were tested for PG antagonist activity as follows using human recombinant prostanoid receptor (DP1, EP1-4, FP, IP and TP) stable cell lines:
(§2) In order to measure the response of Gs and Gi coupled prostanoid receptors as a Ca^2+ signal, chimeric G protein cDNAs were used. Stable cell lines over-expressing human prostanoid DP1, EP1-4, FP, IP, and TP receptors were established as follows:
(§3) Briefly, human prostanoid DP1, EP2, and EP4 receptor cDNAs were co-transfected with chimeric Gqs cDNA containing a haemagglutanin (HA) epitope; human prostanoid EP3 receptors were co-transfected with chimeric Gqi-HA; human EP1, FP, IP, and TP receptor cDNAs were expressed with no exogenous G-proteins. Gqs and Gqi chimeric cDNAs (Molecular Devices, Sunnyvale, Calif., U.S.A.), as well as cDNAs of prostanoid receptors, were cloned into a pCEP4 vector with a hygromycin B selection marker. Transfection into HEK-293 EBNA (Epstein-Barr virus nuclear antigen) cells was achieved by the FuGENE 6 transfection Reagent (Roche Applied Science, Indianapolis, Ind., USA). Stable transfectants were selected according to hygromycin resistance. Because Gqs and Gqi contained an HA epitope, G-protein expression was detected by Western blotting analysis using anti-mouse HA monoclonal antibody and horseradish peroxidase (HRP)-conjugated secondary antibody, while functional expression of prostanoid receptors was detected by FLIPR screening (Matias et al., 2004). These stable cell lines were validated using previously published antagonists at 10 μM against serial dilutions of standard agonists by FLIPR functional assays for Ca^2+ Signaling (as described below).
(§4) Ca^2+ signaling studies were performed using a FLIPR TETRA system (Molecular Devices, Sunnyvale, Calif., USA) in the 384-format. This is a high-throughput instrument for cell-based assays to monitor Ca^2+ signaling associated with GPCRs and ion channels. Cells were seeded at a density of 5×10^4 cells/well in BioCoat poly-D-lysine coated, black wall, clear bottom 384-well plates (BD Biosciences, Franklin lakes, NJ, USA) and allowed to attach overnight in an incubator at 37° C. The cells were then washed twice with HBSS-HEPES buffer (Hanks' balanced salt solution without bicarbonate and phenol red, 20 mM HEPES, pH 7.4) using an ELx405 Select CW Microplate Washer (BioTek, Winooski, Vt., USA). After 60 min of dye-loading in the dark using the Ca^2+-sensitive dye Fluo-4AM (Invitrogen, Carlsbad, Calif., USA), at a final concentration of 2×10^−6M, the plates were washed 4 times with HBSS-HEPES buffer to remove excess dye and leaving 50 μl of buffer in each well. The plates were then placed in the FLIPR TETRA instrument and allowed to equilibrate at 37° C. AGN-211377 was added in a 25 μl volume to each well to give final concentrations of 0.1 μM, 0.3 μM, 1 μM, 3 μM, 10 μM, and 30 μM; or 0.067 μM, 0.1 μM, 0.2 μM, 0.3 μM, 0.67 μM, and 1 μM for cells over-expressing TP receptors. After 4.5 minutes, a 7-point serial dilution of the standard agonist for the corresponding receptor, in a 25 μl volume was injected at the final concentrations from 10^−11M to 10^−5M in 10-fold serial dilution increments for cells expressing human recombinant DP1, EP1, EP2, EP3, EP4, FP, and IP receptors. The dose range for the standard agonist for human recombinant TP receptors was from 10^−12 M to 10^−6 M. HBSS-HEPES buffer was used as the negative control for the standard agonists. Cells were excited with LED (light emitting diode) excitation at 470-495 nm and emission was measured through an emission filter at 515-575 nm. Assay plates were read for 3.5 minutes using the FLIPR^TETRA. The peak increase in fluorescence intensity was recorded for each well. On each plate, negative controls, dose response of positive controls, and co-treatments of antagonist-agonist for each dose were in triplicates.
(§5) Standard agonists were as follows: DP=BW 245C, EP1-EP4=PGE2, FP=17-phenyl-PGF2α, IP=Cicaprost, and TP=U-46619. […]

In assay [2] the target is T2, human prostanoid EP4 receptor (Homo sapiens, UniProt P35408).
T2 construct: expressed in transfected cells
The experiment in a line: FLIPR Ca2+ signaling antagonist assay, EP4 receptor stable cell line. Particulars: HEK-293 EBNA stable cell line; standard agonist PGE2; NA = inactive (no antagonism or Kb 10,000 nM); PAg, Ag not defined. On the procedure:
as §1, §2, §3, §4, §5

For assay [3], the target named is T3, human prostanoid FP receptor (Homo sapiens, UniProt P43088).
T3 construct: expressed in transfected cells
The experiment in a line: FLIPR Ca2+ signaling antagonist assay, FP receptor stable cell line. The conditions noted are these: HEK-293 EBNA stable cell line; standard agonist 17-phenyl-PGF2α; NA = inactive (no antagonism or Kb 10,000 nM); PAg, Ag not defined. The method, then: as §1, §2, §3, §4, §5

Assay [4] has as its target T4, human prostanoid DP1 receptor (Homo sapiens, UniProt Q13258).
T4 construct: expressed in transfected cells
T4 sequence (Q13258 1-359): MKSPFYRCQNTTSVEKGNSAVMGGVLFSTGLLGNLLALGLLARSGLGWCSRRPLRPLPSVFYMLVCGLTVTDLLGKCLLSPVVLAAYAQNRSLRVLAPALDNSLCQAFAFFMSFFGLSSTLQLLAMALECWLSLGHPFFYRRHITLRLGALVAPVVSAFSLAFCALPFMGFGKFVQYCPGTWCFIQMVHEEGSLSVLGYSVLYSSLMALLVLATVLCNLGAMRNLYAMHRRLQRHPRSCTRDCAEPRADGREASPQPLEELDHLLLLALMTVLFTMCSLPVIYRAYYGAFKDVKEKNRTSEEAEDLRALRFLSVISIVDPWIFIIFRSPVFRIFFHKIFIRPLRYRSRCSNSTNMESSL
The experiment in a line: FLIPR Ca2+ signaling antagonist assay, DP1 receptor stable cell line. Particulars: HEK-293 EBNA stable cell line; standard agonist BW 245C; NA = inactive (no antagonism or Kb 10,000 nM); PAg, Ag not defined. The method, then:
as §1, §2, §3, §4, §5

Assay [5] concerns the target T5, human prostanoid EP1 receptor (Homo sapiens, UniProt P34995).
T5 construct: expressed in transfected cells
T5 sequence (P34995 1-402): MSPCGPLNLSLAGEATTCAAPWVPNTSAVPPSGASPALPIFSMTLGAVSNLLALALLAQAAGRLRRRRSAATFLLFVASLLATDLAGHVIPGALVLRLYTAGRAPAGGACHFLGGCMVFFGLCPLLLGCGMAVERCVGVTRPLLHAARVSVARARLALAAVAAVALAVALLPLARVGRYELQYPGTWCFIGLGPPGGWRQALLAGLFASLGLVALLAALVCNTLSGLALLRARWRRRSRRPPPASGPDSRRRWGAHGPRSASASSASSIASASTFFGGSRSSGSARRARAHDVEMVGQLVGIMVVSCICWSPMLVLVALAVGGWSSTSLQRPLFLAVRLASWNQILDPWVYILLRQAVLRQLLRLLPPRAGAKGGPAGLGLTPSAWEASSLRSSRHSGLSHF
As to the kind of experiment: FLIPR Ca2+ signaling antagonist assay, EP1 receptor stable cell line. Particulars: HEK-293 EBNA stable cell line; standard agonist PGE2; NA = inactive (no antagonism or Kb 10,000 nM); PAg, Ag not defined. On the procedure:
as §1, §2, §3, §4, §5

In assay [6] the target is T6, human prostanoid IP receptor (Homo sapiens, UniProt P43119).
T6 construct: expressed in transfected cells
The experiment in a line: FLIPR Ca2+ signaling antagonist assay, IP receptor stable cell line. The conditions noted are these: HEK-293 EBNA stable cell line; standard agonist Cicaprost; NA = inactive (no antagonism or Kb 10,000 nM); PAg, Ag not defined. The method, then:
as §1, §2, §3, §4, §5

Each structure is given as a SMILES string.

T2 sequence (P35408 whole entry): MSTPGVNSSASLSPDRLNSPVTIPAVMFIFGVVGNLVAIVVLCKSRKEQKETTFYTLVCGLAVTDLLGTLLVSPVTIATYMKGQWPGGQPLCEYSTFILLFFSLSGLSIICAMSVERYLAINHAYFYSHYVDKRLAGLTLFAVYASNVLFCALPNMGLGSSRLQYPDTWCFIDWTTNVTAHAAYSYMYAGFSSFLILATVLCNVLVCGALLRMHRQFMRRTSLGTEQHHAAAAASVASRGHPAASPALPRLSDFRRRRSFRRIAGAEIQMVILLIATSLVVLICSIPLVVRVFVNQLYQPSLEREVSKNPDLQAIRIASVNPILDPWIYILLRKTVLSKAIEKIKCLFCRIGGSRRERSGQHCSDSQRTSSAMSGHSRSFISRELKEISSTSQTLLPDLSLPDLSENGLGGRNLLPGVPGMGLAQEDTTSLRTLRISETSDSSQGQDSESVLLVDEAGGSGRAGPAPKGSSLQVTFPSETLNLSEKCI
T3 sequence (P43088 whole entry): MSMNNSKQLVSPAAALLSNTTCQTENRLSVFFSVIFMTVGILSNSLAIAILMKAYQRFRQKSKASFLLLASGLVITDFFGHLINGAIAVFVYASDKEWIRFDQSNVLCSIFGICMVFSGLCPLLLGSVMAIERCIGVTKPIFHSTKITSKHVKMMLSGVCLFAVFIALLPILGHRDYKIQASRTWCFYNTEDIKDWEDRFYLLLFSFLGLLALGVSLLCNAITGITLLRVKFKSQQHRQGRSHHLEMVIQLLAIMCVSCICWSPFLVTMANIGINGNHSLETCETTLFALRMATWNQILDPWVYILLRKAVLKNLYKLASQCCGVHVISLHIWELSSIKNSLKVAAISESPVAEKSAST
T6 sequence (P43119 whole entry): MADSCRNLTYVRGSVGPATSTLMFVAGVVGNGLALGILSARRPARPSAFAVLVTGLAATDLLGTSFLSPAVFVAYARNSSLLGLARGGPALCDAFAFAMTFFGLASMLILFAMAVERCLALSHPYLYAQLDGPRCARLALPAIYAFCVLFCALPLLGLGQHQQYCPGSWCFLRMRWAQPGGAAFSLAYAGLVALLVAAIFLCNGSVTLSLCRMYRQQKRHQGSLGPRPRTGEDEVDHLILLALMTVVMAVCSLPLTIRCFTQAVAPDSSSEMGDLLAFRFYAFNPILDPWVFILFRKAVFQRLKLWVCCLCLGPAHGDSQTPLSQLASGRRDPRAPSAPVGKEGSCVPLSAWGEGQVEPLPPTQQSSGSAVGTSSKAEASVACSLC

As for `Cc1cc(CCC(=O)NS(=O)(=O)C(F)(F)F)nn1Cc1cc(Cl)ccc1OCC(C)C` [Example 44, N-(3-[1-(5-Chloro-2-(2-methylpropyloxy)benzyl)-5-methyl-1H-pyrazol-3-yl]-propionyl)C,C,C-trifluoromethanesulfon amide], the Kb in assay [1] stood at 0.005 µM; in assay [2] it was 0.5 µM; in assay [3] it was 0.5 µM; in assay [4], 0.8 µM; in assay [5], 0.014 µM.
Take `CCC(CC)COc1ccc(F)cc1Cn1nc(CCC(=O)O)cc1C` [Example 47, 3-[1-[2-(2-Ethyl-butoxy)-5-fluoro-benzyl]-5-methyl-1H-pyrazol-3-yl]-propionic acid]: the Kb was determined as 0.1 µM in assay [1]; 0.4 µM in assay [2]; 2.3 µM in assay [3]; 0.24 µM in assay [4]; 0.37 µM in assay [5].
Taken in the same sequence, the figures for `CCC(C)(CC)COc1ccc(Br)cc1Cn1nc(CCC(=O)O)cc1C` [Example 11, 3-{1-[5-Bromo-2-(2-ethyl-2-methyl-butoxy)-benzyl]-5-methyl-1H-pyrazol-3-yl}-propionic acid] were 0.025 µM, 0.43 µM, 0.11 µM, 0.38 µM and 0.036 µM.
Consider `CCC(CC)COc1ccc(C(N)=O)cc1Cn1nc(CCC(=O)O)cc1C` [Example 61, 3-{1-[5-Carbamoyl-2-(2-ethyl-butoxy)-benzyl]-5-methyl-1H-pyrazol-3-yl}-propionic acid], for which the Kb in assay [1] worked out at 1.1 µM; in assay [2] it was 0.8 µM.
As to `Cc1cc(CCC(=O)O)nn1Cc1cc(Cl)ccc1OCC1(C(F)(F)F)CCCC1` [Example 37, 3-[1-(5-Chloro-2-(1-trifluoromethylcyclopentylmethoxy)benzyl)-5-methyl-1H-pyrazol-3-yl]-propionic acid], the Kb was found to be 0.16 µM in assay [1]; 1.9 µM in assay [2]; 1 µM in assay [3]; 0.4 µM in assay [4]; 0.18 µM in assay [5].
`CCC(CC)Oc1ccc(Cl)cc1Cn1nc(CCC(=O)O)cc1C` [Example 45, 3-[1-(5-Chloro-2-(1-ethylpropyloxy)benzyl)-5-methyl-1H-pyrazol-3-yl]-propionic acid]: the Kb in assay [1] worked out at 0.035 µM; in assay [6], 6.1 µM; in assay [3], 0.66 µM; in assay [4], 0.5 µM; in assay [5], 0.24 µM.
Take `Cc1cc(CCC(=O)NS(=O)(=O)c2ccccc2)nn1Cc1cc(Cl)ccc1OCc1ccc(Cl)cc1Cl` [Example 28, N-(3-[1-(5-Chloro-2-(2,4-dichlorobenzyloxy)benzyl)-5-methyl-1H-pyrazol-3-yl]-propionyl)benzenesulfonamide]: the Kb in assay [1] is 0.54 µM; in assay [5] it was 0.23 µM.
As to `COc1ccc(OCC2CC2)c(Cn2nc(CCC(=O)O)cc2C)c1` [Example 54, 3-[1-(2-Cyclopropylmethoxy-5-methoxy-benzyl)-5-methyl-1H-pyrazol-3-yl]-propionic acid], the Kb came to 1.2 µM in assay [1]; 4.7 µM in assay [2]; 1 µM in assay [3]; 1.7 µM in assay [4]; 0.56 µM in assay [5].
For `CCC(CC)COc1ccc(C(=O)O)cc1Cn1nc(CCC(=O)O)cc1C` [Example 62, 3-{1-[5-Carboxy-2-(2-ethyl-butoxy)-benzyl]-5-methyl-1H-pyrazol-3-yl}-propionic acid], the Kb in assay [1] turned out to be 3.7 µM; in assay [5], 2 µM.
Turning to `CCC(CC)COc1ccccc1Cn1nc(CC(C)C(=O)O)cc1C` (racemic) [Example 69, 3-{1-[2-(2-ethyl-butoxy)-benzyl]-5-methyl-1H-pyrazol-3-yl}-2-methyl-propionic acid], the Kb in assay [1] worked out at 0.3 µM; in assay [2], 0.6 µM; in assay [3], 2.5 µM; in assay [4], 0.7 µM; in assay [5], 0.18 µM.
Take `Cc1cc(CCC(=O)O)nn1Cc1cc(Br)ccc1OCC1(C(F)(F)F)CCCC1` [Example 14, 3-[1-(5-Bromo-2-(1-trifluoromethylcyclopentylmethoxy)-benzyl)-5-methyl-1H-pyrazol-3-yl]-propionic acid]: the antagonist dissociation constant (Kb) amounted to 0.16 µM in assay [1]; 1.9 µM in assay [2]; 1 µM in assay [3]; 0.4 µM in assay [4]; 0.18 µM in assay [5].
With `Cc1cc(CCC(=O)O)nn1Cc1cc(Cl)ccc1OCC1CCCO1` (stereo not shown) [Example 33, 3-[1-(5-Chloro-2-(tetrahydrofuran-2-yl-methoxy)benzyl)-5-methyl-1H-pyrazol-3-yl]-propionic acid], the Kb in assay [1] worked out at 1 µM; in assay [3], 4 µM; in assay [5] it was 0.8 µM.
